Measured values published in patent publication US20200071351A1, “TACCALONOLIDE MICROTUBULE STABILIZERS” (THE BOARD OF REGENTS OF THE UNIVERSITY OF TEXAS SYSTEM, priority 2016, published 2020).
Read-outs that look alike come from different tables or passages of the source.

Test system: HeLa cells
Test: Inhibition of cellular proliferation, SRB assay, HeLa cells
Assay type: cell-based
Settings: for activity at concentrations as high as 30,000 nM: up to 30,000 nM
Procedure: The ability of the compounds to initiate cytotoxicity was also determined. […] The determination of IC50 values was performed on taccalonolide material after NMR analysis and subsequent lyophilization. Ethanol or DMSO was used as the vehicle for all cellular studies.
The antiproliferative potencies of the taccalonolides were evaluated in HeLa cells using the SRB assay.

[1] = HeLa cells, SRB assay, parent taccalonolide, read-out: IC50
[2] = Homo sapiens, HeLa, HeLa cells, SRB assay, parent taccalonolide, read-out: IC50

Row | Compound | IC50 [1] [µM] | IC50 [2] [µM] | other results
1 | 5α-hydroxy-taccalonolide A [Taccalonolide Z] | 0.12 | – | –
2 | CC(=O)O[C@H]1C[C@H]2[C@H]([C@@H]3[C@@H](O)[C@@H]4[C@H]([C@H](C)[C@@H]5O[C@@]56OC(=O)[C@@](C)(O)[C@]46C)[C@]31C)[C@@H](O)C(=O)[C@H]1C[C@@H]3O[C@@H]3[C@H](OC(C)=O)[C@@]12C [N-epo] | – | – | IC50 (HeLa cells, SRB assay, C22-C23 epoxide of the taccalonolide in the same line, read-out: Corresponding Epoxide IC50): 0.011 µM
3 | CC(=O)O[C@@H]1[C@H]2[C@H]3[C@H]([C@H](OC(C)=O)[C@H](OC(C)=O)[C@]2(C)[C@@H]2[C@@H]1[C@]1(C)C(=C[C@H]2C)OC(=O)[C@@]1(C)O)[C@]1(C)[C@H](C[C@@H]2O[C@@H]2[C@@H]1OC(C)=O)C(=O)[C@@H]3O [Taccalonolide A, reference compound] | – | 5.38 | –
4 | CC(=O)O[C@@H]1[C@H]2[C@H]3[C@H]([C@H](OC(C)=O)[C@H](OC(C)=O)[C@]2(C)[C@@H]2[C@@H]1[C@]1(C)C(=C[C@H]2C)OC(=O)[C@@]1(C)O)[C@@]1(C)[C@@H](OC(C)=O)[C@H]2O[C@H]2C[C@]1(O)C(=O)[C@@H]3OC(C)=O [Taccalonolide AA] | – | 0.0323 | –
5 | CC(=O)O[C@H]1[C@H]2[C@H]([C@@H]3[C@@H](O)[C@@H]4[C@H]([C@H](C)C=C5OC(=O)[C@@](C)(O)[C@@]54C)[C@@]3(C)[C@H]1OC(C)=O)[C@@H](O)C(=O)[C@@]1(O)C[C@@H]3O[C@@H]3[C@H](OC(C)=O)[C@]21C [Taccalonolide AB] | – | 2.77 | –
6 | CC(=O)O[C@@H]1[C@H]2[C@H]3C([C@H](OC(C)=O)[C@H](OC(C)=O)[C@]2(C)[C@@H]2[C@@H]1[C@]1(C)C(=C[C@@]2(C)OO)OC(=O)[C@@]1(C)O)[C@]1(C)[C@H](C[C@@H]2O[C@@H]2[C@@H]1OC(C)=O)C(=O)[C@@H]3O (stereo partly shown) [Taccalonolide AC] | – | – | activity at concentrations as high as 50,000 nM (HeLa cells, up to 50,000 nM): no activity
7 | CC(=O)O[C@@H]1[C@H]2[C@@H]3C(=O)C(O)=C4C[C@@H]5O[C@@H]5[C@H](OC(C)=O)[C@]4(C)[C@H]3[C@H](OC(C)=O)[C@H](OC(C)=O)[C@]2(C)[C@@H]2[C@@H]1[C@]1(C)C(=C[C@H]2C)OC(=O)[C@@]1(C)O [Taccalonolide AD] | 3.48 | – | –
8 | CC(=O)O[C@@H]1[C@H]2[C@H]3[C@H]([C@H](OC(C)=O)[C@H](OC(C)=O)[C@]2(C)[C@@H]2[C@@H]1[C@]1(C)C(=C[C@H]2C)OC(=O)[C@@]1(C)O)[C@]1(C)[C@H](C[C@@H]2O[C@@H]2[C@@H]1OC(C)=O)C(=O)C3(O)O [Taccalonolide AE] | 5.01 | – | –
9 | CC(=O)O[C@H]1C[C@H]2[C@H]([C@@H]3[C@H]4OC(=O)[C@@](C)(O)[C@@]5(C)C(=O)C[C@@H](C)[C@@H]([C@@H]45)[C@]31C)[C@@H](O)C(=O)[C@H]1C[C@@H]3O[C@@H]3[C@H](OC(C)=O)[C@@]12C [Taccalonolide AK] | > 30 | – | activity at concentrations as high as 30,000 nM (HeLa cells): no activity
10 | CC(=O)O[C@H]1C[C@H]2[C@H]([C@@H]3[C@@H](O)[C@@H]4[C@H]([C@H](C)C=C5OC(=O)[C@@](C)(O)[C@@]54C)[C@]31C)[C@@H](O)C(=O)[C@@]1(O)C[C@@H]3O[C@@H]3[C@H](OC(=O)CC(C)C)[C@]21C [Taccalonolide AM] | 1.2 | – | –
11 | CC(=O)O[C@H]1C[C@H]2[C@H]([C@@H]3[C@@H](O)[C@@H]4[C@H]([C@H](C)C=C5OC(=O)[C@@](C)(O)[C@@]54C)[C@]31C)[C@@H](O)C(=O)[C@H]1C[C@@H]3O[C@@H]3[C@H](O)[C@@]12C [Taccalonolide AN] | 1 | – | –
12 | CC(=O)O[C@H]1[C@H]2[C@H]([C@@H]3[C@H]4OC(=O)[C@@](C)(O)[C@@]5(C)C(=O)C[C@@H](C)[C@@H]([C@@H]45)[C@@]3(C)[C@H]1OC(C)=O)[C@@H](O)C(=O)[C@H]1C[C@@H]3O[C@@H]3[C@H](OC(C)=O)[C@]21C [Taccalonolide AO] | > 30 | – | activity at concentrations as high as 30,000 nM (HeLa cells): no activity
13 | CC(=O)O[C@H]1[C@H]2[C@H]([C@@H]3[C@@H](O)[C@@H]4[C@H]([C@H](C)C=C5OC(=O)[C@@](C)(O)[C@@]54C)[C@@]3(C)[C@H]1OC(C)=O)[C@@H](O)C(=O)[C@H]1C[C@@H]3O[C@@H]3[C@H](OC(C)=O)[C@]21C [Taccalonolide B, reference compound] | – | 3.12 | –
14 | CC(=O)O[C@@H]1[C@H]2[C@@H]3[C@@H](O)C(=O)[C@H]4C[C@@H]5O[C@@H]5[C@H](OC(C)=O)[C@]4(C)[C@H]3C[C@H](OC(C)=O)[C@]2(C)[C@@H]2[C@@H]1[C@]1(C)C(=C[C@H]2C)OC(=O)[C@@]1(C)O [Taccalonolide E, reference compound] | – | 39.5 | –
15 | CC(=O)O[C@H]1[C@@H]2[C@H]([C@H](C)C=C3OC(=O)[C@@](C)(O)[C@@]32C)[C@]2(C)[C@@H]1C1=C(O)C(=O)[C@H]3C[C@@H]4O[C@@H]4[C@H](OC(C)=O)[C@]3(C)[C@H]1[C@H](OC(C)=O)[C@@H]2OC(C)=O [Taccalonolide H2] | 0.73 | – | more potent than taccalonolide A (HeLa IC50 ratio): 7.4 fold
16 | CC(=O)O[C@H]1[C@H]2[C@@H](C(=O)[C@H](O)[C@H]3C[C@@H]4O[C@@H]4[C@H](OC(C)=O)[C@]23C)[C@@H]2[C@@H](O)[C@@H]3[C@H]([C@H](C)C=C4OC(=O)[C@@](C)(O)[C@@]43C)[C@@]2(C)[C@H]1OC(C)=O [Taccalonolide I, reference compound] | – | > 10 | –
17 | CC(=O)O[C@H]1C[C@H]2[C@H]([C@@H]3[C@@H](O)[C@@H]4[C@H]([C@H](C)C=C5OC(=O)[C@@](C)(O)[C@@]54C)[C@]31C)[C@@H](O)C(=O)[C@H]1C[C@@H]3O[C@@H]3[C@H](OC(C)=O)[C@@]12C [Taccalonolide N, reference compound] | – | 8.5 | –
18 | CC(=O)O[C@@H]1[C@H]2[C@@H]3[C@@H](OC(C)=O)C(=O)[C@@]4(O)C[C@@H]5O[C@@H]5[C@H](OC(C)=O)[C@]4(C)[C@H]3C[C@H](OC(C)=O)[C@]2(C)[C@@H]2[C@@H]1[C@]1(C)C(=C[C@H]2C)OC(=O)[C@@]1(C)O [Taccalonolide R, reference compound] | – | 13.1 | IC50 (Homo sapiens, HeLa, read-out: IC50): 13 µM
19 | CC(=O)O[C@@H]1[C@H]2[C@@H]3[C@@H](O)C(=O)[C@H]4C[C@@H]5O[C@@H]5[C@H](OC(=O)C(C)C)[C@]4(C)[C@H]3C[C@H](OC(C)=O)[C@]2(C)[C@@H]2[C@@H]1[C@]1(C)C(=C[C@H]2C)OC(=O)[C@@]1(C)O [Taccalonolide S, reference compound] | – | 0.009 | –
20 | CC(=O)O[C@@H]1[C@H]2[C@@H]3[C@@H](OC(C)=O)C(=O)[C@@]4(O)C[C@@H]5O[C@@H]5[C@H](OC(=O)CC(C)C)[C@]4(C)[C@H]3C[C@H](OC(C)=O)[C@]2(C)[C@@H]2[C@@H]1[C@]1(C)C(=C[C@H]2C)OC(=O)[C@@]1(C)O [Taccalonolide T, reference compound] | – | 0.335 | –
21 | Taccalonolide AG | 0.032 | – | –
22 | Taccalonolide AH | 0.158 | – | –
23 | Taccalonolide AL | 18 | – | –
24 | Taccalonolide AP | > 30 | – | –
25 | Taccalonolide AQ | > 30 | – | activity at concentrations as high as 30,000 nM (HeLa cells): little to no activity
26 | Taccalonolide AR | > 30 | – | activity at concentrations as high as 30,000 nM (HeLa cells): little to no activity
27 | Taccalonolide AS | > 10 | – | activity at concentrations as high as 30,000 nM (HeLa cells): little to no activity
